Assay results as given in patent US20050171192A1, “Use of histamine to treat bone disease” (priority 2003, published 2005).
Read-outs that look alike come from different tables or passages of the source.

How the values were obtained:
[1] = Example 1: inhibition of bone resorption in subjects with bone loss; type: in vivo; conditions: effective dose; Groups 1 through 10 compared to placebo Group 11
Experimental: Subjects suffering from bone loss exacerbated by osteoclast-produced ROS are identified. The subjects are separated into 11 groups of 10 subjects each. […] Subjects in Group 11 are administered a placebo.

[2] = Example 7: bone loss associated with cancer treatments (hormone therapy); type: in vivo; conditions: oral 100 mg in conjunction with hormone therapy; compared to placebo group
Experimental: Individuals suffering from cancer and being treated with hormone therapy are identified. The individuals are divided into 11 groups of 10 each. In conjunction with hormone therapy, Groups 1 through 10 are orally administered 100 mg of histamine, histamine agonists, histamine salts, histamine prodrugs, NADPH-oxidase inhibitors, histamine dihydrochloride, histamine phosphate, serotonin, 5HT agonists, or histamine receptor agonists, respectively. Group 11 receives a placebo in conjunction with hormone therapy.

[3] = intravenous 5 mg in conjunction with steroid therapy; compared to steroid therapy alone
Experimental: Individuals suffering from bone loss associated with steroid therapy, including treatment with corticosteroids, such as betamethasone, budesonide, cortisone dexamethasone, hydrocortisone, methylprednisolone, prednisolone, prednisone, and triamcinolone, are identified. In conjunction with steroid therapy, the individuals are intravenously administered 5 mg of a ROS scavenger or a placebo.

[4] = molecular target: membrane bound oxidase of stimulated phagocytes (Homo sapiens, UniProt P04839); conditions: substrate of the membrane bound oxidase; generally accepted (background); cited from earlier work
[5] = oral 50 mg, 100 mg, 200 mg, 1,000 mg; relative to placebo group
Experimental: Individual suffering from various types of osteoporosis, including type I and type II osteoporosis, age-related osteoporosis, disuse osteoporosis, diabetes-related osteoporosis, and steroid-related osteoporosis, are identified. The individuals are separated into 5 groups of 20 individuals. Individuals in Groups 1 through 4 are orally administered 50 mg, 100 mg, 200 mg, and 1,000 mg of histamine, respectively. Individuals in […] are administered a placebo. The rate of bone loss is reduced for Groups 1 through 4 relative to the rate of bone loss for the placebo group.

[6] = oral 125 mg; versus placebo
Experimental: Individuals suffering from bone loss associated with primary and secondary hyperparathyroidism are identified. The individuals are orally administered 125 mg of histamine or a placebo.

[7] = oral 75 mg in conjunction with antibiotics; versus antibiotics alone
Experimental: Individuals suffering from osteomyelitis are identified. The individuals are orally administered 75 mg of histamine phosphate in conjunction with antibiotics or antibiotics alone.

With `Cl.Cl.NCCc1c[nH]cn1` [histamine dihydrochloride] the “rate of bone healing” value [1] was “accelerated”, the “rate of bone loss” value [1] was “reduced” and the bone healing [2] was “accelerated”. For the same molecule, the bone loss [2] was “inhibited” and the bone loss [3] was “reduced”.
In the case of `NC(=O)C1=CN([C@@H]2O[C@H](COP(=O)(O)OP(=O)(O)OC[C@H]3O[C@@H](n4cnc5c(N)ncnc54)[C@H](O)[C@@H]3O)[C@@H](O)[C@H]2O)C=CC1` [NADH], the Km [4] is given as 450 µM.
For `NCCc1c[nH]c2ccc(O)cc12` [serotonin], the “rate of bone healing” value [1] was “accelerated”, the “rate of bone loss” value [1] was “reduced” and the bone healing [2] was “accelerated”. The bone loss [2] was “inhibited”.
With `NCCc1c[nH]cn1` [histamine] the “rate of bone healing” value [1] was “accelerated”, the “rate of bone loss” value [1] was “reduced” and the “rate of bone loss” value [5] was “reduced”. For the same molecule, the bone healing [2] was “accelerated”, the bone loss [2] was “inhibited” and the “rate of bone loss” value [6] was “reduced”. For the same molecule, the “trauma to bone cells” value [6] was “minimized”.
For `NCCc1c[nH]cn1.O=P(O)(O)O` [histamine phosphate], the bone healing [7] was “accelereated”, the “rate of bone healing” value [1] was “accelerated” and the “rate of bone loss” value [1] was “reduced”. The bone healing [2] was “accelerated” and the bone loss [2] was “inhibited”.
For `NC(=O)C1=CN([C@@H]2O[C@H](COP(=O)(O)OP(=O)(O)OC[C@H]3O[C@@H](n4cnc5c(N)ncnc54)[C@H](OP(=O)(O)O)[C@@H]3O)[C@@H](O)[C@H]2O)C=CC1` [NADPH], the Km [4] is listed as 45 µM.
